Patent US20240009191A1, “METHOD AND COMPOSITION FOR THE TREATMENT OF DISEASE” (DIMERIX BIOSCIENCE PTY LTD, priority 2019, published 2024)

Target: T1, AT1R-CXCR2 heteromer (Homo sapiens, UniProt P25025+P30556)
T1 sequence (P25025 1-360): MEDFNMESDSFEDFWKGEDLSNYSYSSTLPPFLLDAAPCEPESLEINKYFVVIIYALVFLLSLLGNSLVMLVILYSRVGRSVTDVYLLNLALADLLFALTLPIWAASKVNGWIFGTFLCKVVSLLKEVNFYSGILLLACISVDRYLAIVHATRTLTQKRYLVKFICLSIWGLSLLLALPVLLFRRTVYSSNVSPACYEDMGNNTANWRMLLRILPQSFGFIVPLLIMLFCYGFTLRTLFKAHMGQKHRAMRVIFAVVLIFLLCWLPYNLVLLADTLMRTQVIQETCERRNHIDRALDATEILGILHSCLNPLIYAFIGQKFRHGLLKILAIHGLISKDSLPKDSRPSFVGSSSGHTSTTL
T1 sequence (P30556 1-359): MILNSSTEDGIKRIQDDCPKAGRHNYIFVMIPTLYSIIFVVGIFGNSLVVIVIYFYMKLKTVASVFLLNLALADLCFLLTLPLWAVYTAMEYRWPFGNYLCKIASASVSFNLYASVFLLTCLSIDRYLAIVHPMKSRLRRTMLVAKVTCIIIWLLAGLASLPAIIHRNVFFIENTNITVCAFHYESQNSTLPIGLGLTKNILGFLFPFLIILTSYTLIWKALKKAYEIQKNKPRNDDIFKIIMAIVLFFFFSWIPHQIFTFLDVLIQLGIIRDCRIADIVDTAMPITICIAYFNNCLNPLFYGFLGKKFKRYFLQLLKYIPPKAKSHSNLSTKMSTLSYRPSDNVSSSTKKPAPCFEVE
Assay: BRET trafficking of CXCR2/Rluc8 (Venus/Kras, Rab5, Rab8) with HA-AT1R, pre-treatment with vehicle or antagonists/inverse agonists
Format: cell-based
Method: HEK293FT cells were seeded in 6-well plates at a density of approximately 700,000 cells/well and maintained at 37° C., 5% CO2 in Complete Media (DMEM containing 0.3 mg/ml glutamine, 100 IU/ml penicillin and 100 μg/ml streptomycin (Gibco/Thermo Fisher)) supplemented with 10% fetal calf serum (FCS; Bovogen). Transient transfections were carried out 24 h after seeding using FuGene6™ (Promega) according to manufacturer instructions. 24 h post-transfection, cells were washed with PBS, detached using 0.05% trypsin/0.53 mM EDTA, resuspended in HEPES-buffered phenol red free Complete Media containing 5% FCS and added to a poly-L-lysine-coated white 96-well microplate (Greiner Bio-One). 48 h post-transfection, bioluminescence resonance energy transfer (BRET) assays were carried out following pre-incubation of cells with EnduRen™ (Promega) at a final concentration of 30 μM, at 37° C., 5% CO2 for 2 h. BRET measurements were taken at 37° C. using the LUMlstar™ or CLARIOstar™ (BMG Labtech).
For antagonist/inverse agonist assays, cells were pre-incubated with EnduRen for 1.5 hours, followed by the addition of vehicle or antagonists/inverse agonists (10 μM) for another 30 minutes.
The BRET signal observed between interacting proteins is normalized by subtracting the background BRET ratio. […] In the following examples, the second calculation will be used and the signal is described as ligand-induced BRET′. Furthermore, for data shown in FIGS. 4 to 20, all data points in a given set are corrected relative to the final data point prior to agonist treatment, which is fixed to zero. In keys on FIGS. 7 to 20, “>” means “followed by after 50 minutes”, with agonists added at time zero on the x-axes.
Prior to agonist treatment (added at 0 minutes), a baseline BRET signal was recorded for each of the combinations for 20 minutes. Data were calculated as ligand-induced BRET relative to the ‘vehicle followed by vehicle’ (veh>veh) data set.

## Angiotensin II [AngII]
  proximity of CXCR2/Rluc8 to Venus/Kras (BRET): increased proximity
  proximity of CXCR2/Rluc8 to Venus/Rab5 (BRET): very small increase
  proximity of CXCR2/Rluc8 to Venus/Rab8 (BRET): clear increase
